According to BindingDB's records for doi:10.1016/j.bmcl.2009.12.099 (Methylgene, 2010):

Experiments:
[1] = Inhibition of c-MET in human A549 cells by wound healing assay
[2] = Inhibition of c-MET in human DU145 cells by scattering assay

COc1ccccc1NC(=O)CC(Nc1ccc(Oc2ccnc3cc(-c4cn(C)cn4)sc23)c(F)c1)C(F)(F)F (stereo unspecified) [4,4,4-trifluoro-3-(3-fluoro-4-(2-(1-methyl-1H-imidazol-4-yl)thieno[3,2-b]pyridin-7-yloxy)phenylamino)-N-(2-methoxyphenyl)butanamide]
IC50 [1]: 2000 nM | IC50 [2]: 10000 nM

Cn1cnc(-c2cc3nccc(Oc4ccc(NC(CC(=O)Nc5ccc(F)cc5)C(F)(F)F)cc4F)c3s2)c1 (stereo unspecified) [4,4,4-trifluoro-3-(3-fluoro-4-(2-(1-methyl-1H-imidazol-4-yl)thieno[3,2-b]pyridin-7-yloxy)phenylamino)-N-(4-fluorophenyl)butanamide]
IC50 [1]: 400 nM | IC50 [2]: 400 nM

Cn1cnc(-c2cc3nccc(Oc4ccc(NC(CC(=O)Nc5ccc(F)cc5)C(F)(F)F)cc4)c3s2)c1 (stereo unspecified) [4,4,4-trifluoro-N-(4-fluorophenyl)-3-(4-(2-(1-methyl-1H-imidazol-4-yl)thieno[3,2-b]pyridin-7-yloxy)phenylamino)butanamide]
IC50 [1]: 2000 nM | IC50 [2]: 2000 nM
